Entries after “also recorded” stand apart in the source; their conditions may differ.
Assays:
db/db mice [1] = assay: Ex vivo myofibre contractility and force-frequency relationship of extensor digitorum longus muscle; format: in vivo
Excerpt: Ex vivo myofibre contractility and force-frequency relationship. Animals were euthanized in compliance with University of South Florida IACUC guidelines. The extensor digitorum longus (EDL) muscles of each animal were tied with surgical silk at the proximal and distal tendons and dissected free. Muscles were immediately transferred to a customized vertical organ bath system (Aurora Scientific Inc., Canada) with the suture on the distal tendon clamped in place and that on the proximal tendon tied to a force transducer such that the muscles were positioned between two platinum wirestimulating electrodes. […] Muscles were equilibrated for 10-15 min after which, the optimal muscle length (l0) for each muscle was calculated by adjusting the length until a maximal force response to a single twitch was attained. Following determination of l0, the muscles were subjected to stimulation trains (500 ms duration) of frequencies ranging from 1-125 Hz, 1 per minute to determine the force-frequency relationship (FFR). Stimulation was delivered with a 58800 dual pulse digital stimulator (Grass Products, West Warwick, R.I., USA), and all pulses were 1 ms in duration. The peak forces of each contraction at the different stimulation frequencies were used to plot the FFR. […]

C2C12 cells [2] = assay: Scratch (wound closure) assay in C2C12 cells; format: cell-based, mouse; conditions: for percent wound closure: 16 h, vs control cells
Method: In vitro model (C2C12 skeletal muscle myoblast) of scratch assay (wound) was created by using pipette tip and recovery of cells was monitored for 16 hours after the scratch. The percent wound closure was measured by the area indicated (FIG. 5B).
Scratch assay in C2C12 cells. C2C12 cells were seeded into either 6-well or 12-well plates and allowed to grow up to 90% confluence. Scratch or wound injury was induced by streaking the plate (2-3 streaks/well) using a 1000 μL sterilized pipette tip in each well. Treatments were performed with the vehicle or P7C3 groups within the cell culture media. Images were taken of each streak immediately after with an Echo Rebel microscope, and the cell culture plates were then placed in the incubator for 16 h. After 16 h, images were obtained at the same location of the streaks utilizing the coordinates marked. The ImageJ software (NIH, USA) was utilized to calculate the areas of the scratches at the 0 h and 16 h time point, with the area at 16 h divided by the area at 0 h to determine the percent wound closure.
Three sets of experiments were performed with this assay to determine the percent wound closure with the P7C3 solution, the P7C3 NPs, the A01B conjugate P7C3 NPs, and the P7C3 scrambled aptamer NPs. For assessing the effects of the P7C3 solution on percent wound closure, the cells were treated with the vehicle control (DMSO) and 100 nM-2 μM P7C3. For determining the effect of P7C3 NPs, the cells were treated with the vehicle control (blank NPs) and 10 nM-1 μM P7C3 NPs. Finally, for the targeted A01B conjugated P7C3 NPs and scrambled aptamer conjugated P7C3 NPs, the cells were treated with the vehicle controls (blank aptamer conjugated NPs) and 100 nM each of both aptamers conjugated NPs.

Nampt = biological target: T1, Nampt (Mus musculus, UniProt Q99KQ4); assay: Gastrocnemius muscle Nampt enzymatic activity in db/db mice; format: in vivo; conditions: 4 weeks, vs db-Veh
T1 construct: from tissue; host or cells: whole heart homogenate of db/db mice
Excerpt: Nampt enzymatic activity.

Sirt1 = Sirt1 deacetylase activity in db/db heart lysates; format: in vivo, mice; conditions: vs vehicle controls
Method: Sirt1 deacetylase activity. Sirt1 deacetylase activity was measured in the whole heart lysates from the vehicle and P7C3 treated db/db mice according to the manufacturer's protocol using a deacetylase fluorometric assay kit (Sigma-Aldrich, MO, USA). The fluorescence intensity was measured at 440 nm (excitation, 340 nm).

db/db mice [3] = assay: Electrocardiography in db/db mice; format: in vivo; conditions: 10 mg/kg/day i.p., 4 weeks, vs vehicle
Method: Electrocardiography (ECG). Mouse ECG recordings were obtained utilizing 2-3% isoflurane/oxygen anesthesia in lead II configuration. ECGs were acquired for a total duration of 15 min, with 1 min recordings obtained at 5-minute intervals. Heart rate was monitored, while ECG traces were acquired using PowerLab system operated with LabChart 7.2 software (AD Instruments, UK). Data were analyzed offline using the ECG module of LabChart 7.2 software, as reported elsewhere. The intervals (ms) of QTc, JT, and ST elevation (mV) were measured. QT interval was measured from the start of the Q peak to the point where the T wave returns to the isoelectric baseline (TP baseline), and heart rate corrected QT (QTc) interval was obtained using the formula (QTc=QT/(RR/100)^1/2).

C2C12 cells [4] = assay: MTT cytotoxicity study in C2C12 cells; format: cell-based, mouse
Method: Cytotoxicity study. The cytotoxicity of P7C3 nanoparticles (P7C3 NP), and the skeletal muscle-specific aptamer-based targeted P7C3 nanoparticles (P7C3 NP Apt) were determined using the MTT assay in C2C12 cells and was compared with the P7C3 solution, DMSO and control media. Briefly, the mouse C2C12 myoblasts were seeded at a seeding density of 10,000 cells/well in three 96-well plates (Corning, N.Y., USA) in 100 μl of growth medium, i.e., DMEM F12 supplemented with 10% FBS, and 1% P/S and were allowed to grow for 24, 48, and 72 h after an initial attachment period of 24 h, which was considered as time 0. […] The 0 nM concentration had the solvent vehicle control DMSO, in which the drugs P7C3, 7C3 NPs, and P7C3 NPs Apt were dissolved. The MTT reagent solution (1 mg/mL) was added to each well after 24, 48, and 72 h of cell proliferation and the assay was performed according to the manufacturer's protocol (Thermo Fisher Scientific CyQUANT™ MTT Cell Viability Assay kit, USA). The spectrophotometer reading was measured at 540 nm wavelength using a Synergy H1 Hybrid Multi-Mode Reader. Cell viability was calculated and plotted, considering the optical density of solvent vehicle control DMSO wells as 100% viable.

T1 sequence (Q99KQ4 whole entry): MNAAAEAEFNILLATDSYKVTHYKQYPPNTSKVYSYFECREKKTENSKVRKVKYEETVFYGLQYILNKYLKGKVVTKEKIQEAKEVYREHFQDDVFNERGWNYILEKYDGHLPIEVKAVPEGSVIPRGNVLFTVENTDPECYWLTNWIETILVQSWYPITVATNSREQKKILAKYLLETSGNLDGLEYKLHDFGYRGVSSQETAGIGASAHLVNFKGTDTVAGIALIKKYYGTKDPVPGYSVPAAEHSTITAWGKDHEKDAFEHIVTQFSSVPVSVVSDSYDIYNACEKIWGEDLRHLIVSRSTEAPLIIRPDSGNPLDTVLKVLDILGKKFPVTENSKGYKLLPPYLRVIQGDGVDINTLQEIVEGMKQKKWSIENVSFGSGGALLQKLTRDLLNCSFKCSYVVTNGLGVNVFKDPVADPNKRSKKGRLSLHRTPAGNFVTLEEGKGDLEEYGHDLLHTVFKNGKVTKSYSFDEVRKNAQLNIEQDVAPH

OC(CNc1ccccc1)Cn1c2ccc(Br)cc2c2cc(Br)ccc21 (stereo not drawn) [P7C3, 3,6-Dibromo-a-[(phenylamino)methyl]-9H-carbazole-9-ethanol]
reduced EDL force at higher frequencies seen in db-Veh (db/db mice [1]; db/db, 4 weeks): mitigated
absolute myofibre force frequency area under curve (db/db mice [1]; ex vivo EDL, vs db-Veh): significant increase
percent wound closure (C2C12 cells [2]; 10 nM): not significant
percent wound closure (C2C12 cells [2]; 100 nM): not significant
percent wound closure (C2C12 cells [2]; 500 nM): significantly increased
percent wound closure (C2C12 cells [2]; 1 μM): significantly increased; also recorded: significantly higher
percent wound closure (C2C12 cells [2]; 2 μM): significantly increased
gap closure at 16 hrs (C2C12 cells [2]; C2C12 cells, 1 μM or 100 nM for 24 hours followed by wire injury): significantly augmented
Nampt activity in gastrocnemius muscle (Nampt): significant increase
SiRT1 activity in cardiac tissue (Sirt1): significant increase
JT interval (db/db mice [3]): significantly attenuated
QTc interval (db/db mice [3]): significantly attenuated
ST elevation (db/db mice [3]): significantly attenuated
cytotoxicity (MTT cell viability) (C2C12 cells [4]; 0, 10, 500, 1000 nM, 24, 48, 72 h): not toxic
cell viability (C2C12 cells [4]; 10 nM, 72 h, vs control cells): significantly higher

Source: US20220370636A1, “NICOTINAMIDE ADENINE DINUCLEOTIDE ACTIVATOR AND USE THEREOF” (University of South Florida, priority 2021, published 2022)
